Experimental data reported in patent publication US20250059233A1, “USE OF THERAPEUTIC PEPTIDES” (Viage Therapeutics Inc., priority 2021, published 2025).
Counter-ions that a name gives are not always drawn. No end group written: not given here.

Experiments:
[1] = tested on: Male ICR mice; test: Step-down inhibitory avoidance test, scopolamine-induced memory impairment; format: in vivo; settings: 1.5 mg/kg oral gavage once a day for 21 days; scopolamine 2 mg/kg i.p.; vs model group, P<0.01
Description: Male ICR mice, aged 4-5 weeks were used in the study.
The study was performed in step-down inhibitory avoidance equipment with dimensions 12 cm×2 cm×18 cm in each chamber (Model: YLS-3T, Shandong Yiyan Technology Co., LTD., China). The bottom of each chamber was covered with a copper grid that can be electrified. A rubber platform was placed in the right corner of each chamber.
Male ICR mice in each group were treated by oral gavage once a day for 21 days with the vehicle, Donepezil Hydrochloride (1.5 mg/kg), and the peptide […] (SEQ ID NO:2) (0.3, 10 mg/kg), respectively. Two hours after the last administration, scopolamine hydrobromide (2 mg/kg) was injected intraperitoneally to induce memory impairment.
Fifty male ICR mice were divided into 5 groups according to the average of body weight, 10 mice in each group, as detailed in Table 1. […]
Evaluation period: 24 h after the training period, the mice were placed on the rubber platform and evaluated for 5 minutes. The latency of the first jump from the platform to the copper grid was observed and counted, and the latency in seconds was analyzed to evaluate memory improvement.
All results were given as mean±SEM, and the data differences between groups were analyzed by t-test for the paired comparisons using the GraphPad Prism 8 statistical package (GraphPad Software Inc., San Diego, CA, USA). […]

[2] = tested on: AVPR1A, AVPR1B, AVPR2; test: Tail suspension test (TST) with vasopressin receptor inhibitors; format: in vivo
[3] = tested on: healthy subjects; settings: human, in vivo
[4] = inhibitor given with the peptide

For COc1cc2c(cc1OC)C(=O)C(CC1CCN(Cc3ccccc3)CC1)C2 (centres unmarked) [Donepezil Hydrochloride], the “latency of the first jump from the platform (step-down)” value [1] was “significantly longer than the model group”.

For Cc1nc2c([nH]1)-c1ccccc1N(C(=O)c1ccc(NC(=O)c3ccccc3-c3ccccc3)cc1)CC2 [conivaptan], the “blocking of LSSTQAQQSY activity in a tail suspension test” value (from here on “blocking of LSSTQAQQSY activity”) [2, 4] was “blocks” and the “blocking of LSSTQAQQSY activity” value ([2]; low doses of the inhibitor) was “blocks”.

Cc1ccccc1C(=O)Nc1ccc(C(=O)N2CCCC(O)c3cc(Cl)ccc32)c(C)c1 (centres unmarked) [tolvaptan] was tested, and the “blocking of LSSTQAQQSY activity” value [2, 4] was “does not block”.

For LSSTQAQQSY, the “vital signs, electrocardiography (ECG) data, and physical examinations” value [3] was “normal”.
